Experimental data published in ChEMBL document CHEMBL5252582, “Glyclauxins A-E: Dimeric Oxaphenalenone Aminoglycosides from an Australian Wasp Nest-Derived Fungus Talaromyces sp. CMB-MW102” (J Nat Prod, 2023).

Experiments:
[1] = test system: SW-620; experiment: Cytotoxicity against human SW620 cells assessed as cell growth inhibition incubated for 48 hrs by MTT assay; assay type: functional, cell-based; settings: SW-620, 48 h
[2] = test system: NCI-H460; experiment: Cytotoxicity against human NCI-H460 cells assessed as cell growth inhibition incubated for 48 hrs by MTT assay; assay type: functional, cell-based; settings: NCI-H460, 48 h
[3] = test system: Candida albicans; experiment: Antifungal activity against Candida albicans ATCC10231 assessed as fungal growth inhibition incubated for 24 hrs by spectrophotometric analysis; assay type: functional, organism-based; settings: ATCC10231, 24 h
[4] = test system: Escherichia coli; experiment: Antibacterial activity against gram negative Escherichia coli ATCC11775 assessed as bacterial growth inhibition incubated for 24 hrs by spectrophotometric analysis; assay type: functional, organism-based; settings: ATCC11775, 24 h
[5] = test system: Staphylococcus aureus; experiment: Antibacterial activity against gram positive Staphylococcus aureus ATCC25923 assessed as bacterial growth inhibition incubated for 24 hrs by spectrophotometric analysis; assay type: functional, organism-based; settings: ATCC25923, 24 h

Measured: IC50

CO[C@@]12c3c(C)cc(O)c4c(=O)n([C@H]5CO[C@H](CO)[C@@H](O)[C@@H]5O)cc(c34)C(=O)[C@@H]1[C@]13COC(=O)c4c(O)cc(C)c(c41)C(=O)[C@H]2[C@@H]3OC(C)=O
> 30 µM: all assays above

CO[C@@]12c3c(C)cc(O)c4c(=O)occ(c34)C(=O)[C@@H]1[C@]13COC(=O)c4c(O)cc(C)c(c41)C(=O)C2[C@@H]3OC(C)=O
> 30 µM: all assays above

CC(=O)O[C@H]1[C@@H]2C(=O)c3c(C)cc(O)c4c3[C@@]1(COC4=O)C1=C2c2c(C)cc(O)c3c(=O)n([C@H]4CO[C@H](CO)[C@@H](O)[C@@H]4O)cc(c23)C1=O
> 30 µM: all assays above

CO[C@@]12c3c(C)cc(O)c4c(=O)n([C@H]5CO[C@H](CO)[C@@H](O)[C@@H]5O)cc(c34)C(=O)[C@@H]1[C@]13COC(=O)c4c(O)cc(C)c(c41)C(=O)[C@H]2[C@@H]3O
> 30 µM: all assays above

CC(=O)OC[C@H]1OC[C@H](n2cc3c4c(c(C)cc(O)c4c2=O)C2=C(C3=O)[C@]34COC(=O)c5c(O)cc(C)c(c53)C(=O)[C@H]2[C@@H]4OC(C)=O)[C@@H](O)[C@@H]1O
> 30 µM: all assays above

Cc1cc(O)c2c3c1C(=O)[C@@H]1C4=C(C(=O)c5cn([C@H]6CO[C@H](CO)[C@@H](O)[C@@H]6O)c(=O)c6c(O)cc(C)c4c56)[C@@]3(COC2=O)[C@H]1O
> 30 µM: all assays above
